Results from patent US4831027A, “Imidazo-benzoxazinones, the preparation thereof and pharmaceutical compositions containing these compounds” (Dr. Karl Thomae GmbH, priority 1986, dated 1989).

Test system: anaesthetized cats
Assay: Determination of the effect on blood pressure and positive inotropic activity in anaesthetized cats
Format: in vivo
Settings: 0.3 mg/kg i.v., average of 2 cats; for Diastolic blood pressure change: anaesthetized cats (sodium pentobarbital), pressure in aorta abdominalis; for Duration of effect (half life) / Increase of dp/dt (contractility parameter dp/dtmax): anaesthetized cats; for Increase of dp/dt (contractility parameter dp/dtmax): pressure in left ventricle, catheter-tip manometer
Description: 1. Determination of the effect on blood pressure and positive inotropic activity in anaesthetized cats: The tests were carried out on cats which had been anaesthetized with sodium pentobarbital (40 mg/kg i.p. and 8 mg/kg/hour i.v.). The animals breathed spontaneously. The arterial blood pressure was measured in the aorta abdominalis using a Statham pressure transducer (P 23 Dc). To determine the positive inotropic activity the pressure in the left ventricle was measured using a catheter-tip manometer (Millar PC-350 A). From this, the contractility parameter dp/dtmax was obtained using an analogue differentiator. The test substance was injected into a vena femoralis. Polydiol 200 was used as solvent. The substance was tested on 2 cats, dosage 0.3 mg/kg i.v.

CC1(C)OC(=O)Nc2cc3nc(-c4ccncc4)[nH]c3cc21 [A, 8,8-dimethyl-2-(4-pyridyl)-8-hydro-(5H)-imidazo[5,4-g][3,1]benzoxazin-6-one]
Diastolic blood pressure change: 0 mmHg | Duration of effect (half life): 18 min | Increase of dp/dt (contractility parameter dp/dtmax): +43%

CCN1C(=O)OC(C)(C)c2cc3[nH]c(-c4ccncc4)nc3cc21 [B, 5-ethyl-8,8-dimethyl-2-(4-pyridyl)-8-hydro-(5H)imidazo[5,4-g][3,1]benzoxazin-6-one]
Diastolic blood pressure change: -21 mmHg | Duration of effect (half life): 16 min | Increase of dp/dt (contractility parameter dp/dtmax): +52%

CCCc1nc2cc3c(cc2[nH]1)C(C)(C)OC(=O)N3 [C, 8,8-dimethyl-2-n-propyl-8-hydro-(5H)-imidazo[5,4-g][3,1]benzoxazin-6-one]
Diastolic blood pressure change: -11 mmHg | Duration of effect (half life): 11 min | Increase of dp/dt (contractility parameter dp/dtmax): +31%

CCN1C(=O)OC(C)(C)c2cc3[nH]c(-c4ccco4)nc3cc21 [D, 5-ethyl-8,8-dimethyl-2-(2-furyl)-8-hydro-(5H)imidazo[5,4-g][3,1]benzoxazin-6-one]
Diastolic blood pressure change: -37 mmHg | Duration of effect (half life): 4 min | Increase of dp/dt (contractility parameter dp/dtmax): +41%

CC1(C)OC(=O)Nc2cc3nc(-c4ccco4)[nH]c3cc21 [E, 8,8-dimethyl-2-(2-furyl)-8-hydro-(5H)-imidazo[5,4-g][3,1]benzoxazin-6-one]
Diastolic blood pressure change: -16 mmHg | Duration of effect (half life): 7 min | Increase of dp/dt (contractility parameter dp/dtmax): +31%

CC1(C)OC(=O)Nc2cc3nc(-c4cccs4)[nH]c3cc21 [F, 8,8-dimethyl-2-(2-thienyl)-8-hydro-(5H)-imidazo[5,4-g][3,1]benzoxazin-6-one]
Diastolic blood pressure change: -24 mmHg | Duration of effect (half life): 10 min | Increase of dp/dt (contractility parameter dp/dtmax): +28%
